Data reported in ChEMBL document CHEMBL4325823 (Medchemcomm, 2018).
≈ marks a conversion by molar mass, not a printed value.

Legend:
Bacteroides sp. = experiment: Antibacterial activity against Bacteroides sp.; format: functional
Enterobacteriaceae [1] = experiment: Inhibition of OXA in Enterobacteriaceae assessed as potentiation of aztreonam-induced antibacterial activity by measuring aztreonam MIC at 2 ug/ml by agar dilution method
Enterobacteriaceae [2] = experiment: Inhibition of ESBL in Enterobacteriaceae assessed as potentiation of piperacillin-induced antibacterial activity by measuring piperacillin MIC at 2 ug/ml by agar dilution method
Enterobacteriaceae [3] = experiment: Inhibition of OXA in Enterobacteriaceae assessed as potentiation of piperacillin-induced antibacterial activity by measuring piperacillin MIC at 2 ug/ml by agar dilution method
Enterobacteriaceae [4] = experiment: Inhibition of KPC in Enterobacteriaceae assessed as potentiation of piperacillin-induced antibacterial activity by measuring piperacillin MIC at 2 ug/ml by agar dilution method
Enterobacteriaceae [5] = experiment: Inhibition of OXA in Enterobacteriaceae assessed as potentiation of cefepime-induced antibacterial activity by measuring cefepime MIC at 2 ug/ml by agar dilution method
Enterobacteriaceae [6] = experiment: Inhibition of KPC in Enterobacteriaceae assessed as potentiation of cefepime-induced antibacterial activity by measuring cefepime MIC at 2 ug/ml by agar dilution method
Enterobacteriaceae [7] = experiment: Inhibition of ESBL in Enterobacteriaceae assessed as potentiation of aztreonam-induced antibacterial activity by measuring aztreonam MIC at 2 ug/ml by agar dilution method
Enterobacteriaceae [8] = experiment: Inhibition of MBL in Enterobacteriaceae assessed as potentiation of aztreonam-induced antibacterial activity by measuring aztreonam MIC at 2 ug/ml by agar dilution method (reference value: 4.68 ug/ml)
Enterobacteriaceae [9] = experiment: Inhibition of KPC in Enterobacteriaceae assessed as potentiation of meropenem-induced antibacterial activity by measuring meropenem MIC at 2 ug/ml by agar dilution method (reference value: 8.43 ug/ml)
Enterobacteriaceae [10] = experiment: Inhibition of ESBL in Enterobacteriaceae assessed as potentiation of cefepime-induced antibacterial activity by measuring cefepime MIC at 2 ug/ml by agar dilution method
Enterobacteriaceae [11] = experiment: Inhibition of KPC in Enterobacteriaceae assessed as potentiation of aztreonam-induced antibacterial activity by measuring aztreonam MIC at 2 ug/ml by agar dilution method
[12] = Inhibition of Enterobacteriaceae PBP2 by Bocillin FL-based fluorescence assay

SMILES	MIC90 (Bacteroides sp.) [µg/mL]	MIC (Enterobacteriaceae [1]) [µg/mL]	MIC (Enterobacteriaceae [2]) [µg/mL]	MIC (Enterobacteriaceae [3]) [µg/mL]	MIC (Enterobacteriaceae [4]) [µg/mL]	MIC (Enterobacteriaceae [5]) [µg/mL]	MIC (Enterobacteriaceae [6]) [µg/mL]	MIC (Enterobacteriaceae [7]) [µg/mL]	MIC (Enterobacteriaceae [8]) [µg/mL]	MIC (Enterobacteriaceae [9]) [µg/mL]	MIC (Enterobacteriaceae [10]) [µg/mL]	MIC (Enterobacteriaceae [11]) [µg/mL]	IC50 [12] [µg/mL]
C[C@@H](O)[C@H]1C(=O)N2C(C(=O)O)=C(SCCNC=N)C[C@H]12 [IMIPENEM ANHYDROUS]	≤ 1												
NCCONC(=O)[C@@H]1CC[C@@H]2CN1C(=O)N2OS(=O)(=O)O [NACUBACTAM]		< 1	< 1	< 1	< 1	< 1	< 1	< 1	0.072	< 1	< 1	< 1	0.12 (≈ 0.37 µM)
